This assay has as its target Gamma-secretase. The assay can be described thus: In vitro inhibition of gamma-secretase as amyloid peptide production in SH-SY5Y cells. In kind it is functional, cell-based, Homo sapiens.

Our source for the IC50 values is ChEMBL document CHEMBL1145262, “Aryl sulfones: a new class of gamma-secretase inhibitors” (Bioorg Med Chem Lett, 2005).

SMILES strings stand for the structures.

`O=S(=O)(c1ccc(Cl)cc1)C1(c2ccccc2)CCCCC1` gave an IC50 of 461 nM.

As to `O=S(=O)(c1ccc(Cl)cc1)C1(c2ccccc2F)CCCCC1`, half-maximal inhibition (IC50) required 55 nM.

`CC(C)N(c1cc(F)ccc1F)S(=O)(=O)c1ccc(Cl)cc1` gave an IC50 of 170 nM.

With `C[C@H](CO)N(c1cc(F)ccc1F)S(=O)(=O)c1ccc(Cl)cc1`, the IC50 amounted to 27 nM. This IC50 is about 6.3-fold lower than that of the compound before.

In the case of `CC(C)C(c1cc(F)ccc1F)S(=O)(=O)c1ccc(Cl)cc1` (centres undefined), half-maximal inhibition (IC50) was put at 70 nM.

Compound `CC(CCO)C(c1cc(F)ccc1F)S(=O)(=O)c1ccc(Cl)cc1` (centres undefined) gave an IC50 of 35 nM.

As for `COC(=O)C(C)C(c1cc(F)ccc1F)S(=O)(=O)c1ccc(Cl)cc1` (centres undefined), the IC50 stood at 253 nM.

Regarding `O=S(=O)(Nc1cc(F)ccc1F)c1ccc(Cl)cc1`, the IC50 is over 10000 nM.

The compound `CC(CO)C(c1cc(F)ccc1F)S(=O)(=O)c1ccc(Cl)cc1` (centres undefined) came in with an IC50 of 304 nM.

As to `O=S(=O)(Cc1cc(F)ccc1F)c1ccc(Cl)cc1`, the concentration for half-maximal inhibition (IC50) turned out to be 4410 nM.

On to `CC(c1cc(F)ccc1F)S(=O)(=O)c1ccc(Cl)cc1` (centres undefined), for which the IC50 turned out to be 2470 nM.

Regarding `O=S(=O)(c1ccc(Cl)cc1)C1(c2cccc(F)c2)CCCCC1`, the IC50 was found to be 249 nM.

`O=S(=O)(c1ccccc1)C1(c2cc(F)ccc2F)CCCCC1` showed an IC50 of 98 nM.

On to `CN(c1cc(F)ccc1F)S(=O)(=O)c1ccc(Cl)cc1`, for which it took 1900 nM to reach half-maximal inhibition (IC50). Against the preceding compound, the IC50 is about 19-fold higher.

The compound `COC(=O)C1CC(c2cc(F)ccc2F)(S(=O)(=O)c2ccc(Cl)cc2)CCC1=O` (centres undefined) displayed an IC50 of 104 nM.

As to `O=C1CCC(c2cc(F)ccc2F)(S(=O)(=O)c2ccc(Cl)cc2)CC1`, 22 nM corresponded to half-maximal inhibition (IC50).

`O=S(=O)(c1ccc(Cl)cc1)C1(c2cc(F)ccc2F)CCCCC1`: the IC50 was 3 nM.

Take `O=S(=O)(c1ccc(Cl)cc1)C1(c2cc(F)ccc2F)CC2CCC(C2)C1` (stereo in doubt; 19): the IC50 came out at 12 nM.

In turn, `O=S(=O)(c1ccc(Cl)cc1)C1(c2cc(F)ccc2F)CC2CCC(C2)C1` (stereo in doubt; 20) returned an IC50 of 94 nM.
